Results: patent US11312727B1, “Macrocyclic flu endonuclease inhibitors” (Janssen BioPharma, Inc., priority 2018, dated 2022)
pEC50: −log10 of the molar value.

Legend:
[1] = test system: Influenza strain A549 A/WSN/33 (H1N1); assay: microbe, parasite or virus in culture; type: cell-based; settings: Influenza A virus, A549, 20 h, A549 cells, influenza A/WSN/33 (H1N1), 20 hours incubation; read-out: A549_A(H1N1) EC50
[2] = in vitro; settings: human, CC50, uninfected A549 cells, CellTiter-Glo

Compound	pEC50 [1]	CC50 [2] [µM]
C[C@H]1/C=C\COc2cccc3c2[C@@H](c2ccccc2SC3)N2CN1C(=O)c1c(O)c(=O)ccn12 (single isomer, unassigned) [Compound 138AA, (13*S,21a*S,Z)-16-hydroxy-13-methyl-6,10,13,21a-tetrahydro-7,8-(epiprop[1]en[1]yl[3]ylidene)-14,21-methanobenzo[6,7]thiepino[4,5-c]pyrido[1,2-f][1]oxa[5,6,9]triazacyclotridecine-15,17-dione]	9.10	> 0.05
C[C@@H]1/C=C\COc2cccc3c2[C@@H](c2ccccc2SC3)N2CN1C(=O)c1c(O)c(=O)ccn12 (single isomer, unassigned) [Compound 138AB, (13*R,21a*S,Z)-16-hydroxy-13-methyl-6,10,13,21a-tetrahydro-7,8-(epiprop[1]en[1]yl[3]ylidene)-14,21-methanobenzo[6,7]thiepino[4,5-c]pyrido[1,2-f][1]oxa[5,6,9]triazacyclotridecine-15,17-dione]	8.82	> 0.05
C[C@@H]1/C=C\COc2cccc3c2[C@H](c2ccccc2SC3)N2CN1C(=O)c1c(O)c(=O)ccn12 (single isomer, unassigned) [Compound 138BB, (13*R,21a*R,Z)-16-hydroxy-13-methyl-6,10,13,21a-tetrahydro-7,8-(epiprop[1]en[1]yl[3]ylidene)-14,21-methanobenzo[6,7]thiepino[4,5-c]pyrido[1,2-f][1]oxa[5,6,9]triazacyclotridecine-15,17-dione]	< 7.00	> 0.2
C[C@@H]1/C=C/COc2cccc3c2[C@H](c2ccccc2SC3)N2CN1C(=O)c1c(O)c(=O)ccn12 (single isomer, unassigned) [Compound 138C, (9*R,17a*R,E)-12-hydroxy-9-methyl-2,6,9,17a-tetrahydro-3,4-(epiprop[1]en[1]yl[3]ylidene)-10,17-methanobenzo[6,7]thiepino[4,5-c]pyrido[1,2-f][1]oxa[5,6,9]triazacyclotridecine-11,13-dione]	< 7.00	> 0.2
C[C@H]1/C=C/COc2cccc3c2[C@@H](c2ccccc2SC3)N2CN1C(=O)c1c(O)c(=O)ccn12 (single isomer, unassigned) [Compound 138D, (9*S,17a*S,E)-12-hydroxy-9-methyl-2,6,9,17a-tetrahydro-3,4-(epiprop[1]en[1]yl[3]ylidene)-10,17-methanobenzo[6,7]thiepino[4,5-c]pyrido[1,2-f][1]oxa[5,6,9]triazacyclotridecine-11,13-dione]	9.05	> 0.2
O=C1c2c(O)c(=O)ccn2N2CN1C[C@H]1C[C@@H]1COc1c(ccc(F)c1F)[C@@H]2c1ccccc1 (single isomer, unassigned) [Compound 139AA, (1a*S,8*S,17a*S)-4,5-difluoro-14-hydroxy-8-phenyl-1a,2,17,17a-tetrahydro-1H,8H-9,16-methanobenzo[b]cyclopropa[k]pyrido[1,2-f][1]oxa[5,6,9]triazacyclotridecine-13,15-dione]	5.08	26.9
O=C1c2c(O)c(=O)ccn2N2CN1C[C@@H]1C[C@H]1COc1c(ccc(F)c1F)[C@@H]2c1ccccc1 (single isomer, unassigned) [Compound 139AB, (1a*R,8*S,17a*R)-4,5-difluoro-14-hydroxy-8-phenyl-1a,2,17,17a-tetrahydro-1H,8H-9,16-methanobenzo[b]cyclopropa[k]pyrido[1,2-f][1]oxa[5,6,9]triazacyclotridecine-13,15-dione]	5.31	35.9
O=C1c2c(O)c(=O)ccn2N2CN1C[C@H]1C[C@@H]1COc1c(ccc(F)c1F)[C@H]2c1ccccc1 (single isomer, unassigned) [Compound 139BA, (1a*S,8*R,17a*S)-4,5-difluoro-14-hydroxy-8-phenyl-1a,2,17,17a-tetrahydro-1H,8H-9,16-methanobenzo[b]cyclopropa[k]pyrido[1,2-f][1]oxa[5,6,9]triazacyclotridecine-13,15-dione]	7.35	> 0.1
O=C1c2c(O)c(=O)ccn2N2CN1C[C@@H]1C[C@H]1COc1c(ccc(F)c1F)[C@H]2c1ccccc1 (single isomer, unassigned) [Compound 139BB, (1a*R,8*R,17a*R)-4,5-difluoro-14-hydroxy-8-phenyl-1a,2,17,17a-tetrahydro-1H,8H-9,16-methanobenzo[b]cyclopropa[k]pyrido[1,2-f][1]oxa[5,6,9]triazacyclotridecine-13,15-dione]	< 7.60	> 0.05
O=C1c2c(O)c(=O)ccn2N2CN1C/C=C/COc1cc(F)c(F)c3c1[C@@H]2c1ccccc1SC3 (single isomer, unassigned) [Compound 140A, (17a*R,*E)-24,25-difluoro-12-hydroxy-2,6,9,17a-tetrahydro-3,4-(epiprop[1]en[1]yl[3]ylidene)-10,17-methanobenzo[6,7]thiepino[4,5-c]pyrido[1,2-f][1]oxa[5,6,9]triazacyclotridecine-11,13-dione]	7.02	9.96
O=C1c2c(O)c(=O)ccn2N2CN1C/C=C/COc1cc(F)c(F)c3c1[C@H]2c1ccccc1SC3 (single isomer, unassigned) [Compound 140B, (17a*S,*E)-24,25-difluoro-12-hydroxy-2,6,9,17a-tetrahydro-3,4-(epiprop[1]en[1]yl[3]ylidene)-10,17-methanobenzo[6,7]thiepino[4,5-c]pyrido[1,2-f][1]oxa[5,6,9]triazacyclotridecine-11,13-dione]	9.52	> 0.05
O=C1c2c(O)c(=O)ccn2N2CN1C/C=C\COc1cc(F)c(F)c3c1[C@@H]2c1ccccc1SC3 (single isomer, unassigned) [Compound 140C, (21a*R,*Z)-24,25-difluoro-16-hydroxy-6,10,13,21a-tetrahydro-7,8-(epiprop[1]en[1]yl[3]ylidene)-14,21-methanobenzo[6,7]thiepino[4,5-c]pyrido[1,2-f][1]oxa[5,6,9]triazacyclotridecine-15,17-dione]	7.43	> 10
O=C1c2c(O)c(=O)ccn2N2CN1C/C=C\COc1cc(F)c(F)c3c1[C@H]2c1ccccc1SC3 (single isomer, unassigned) [Compound 140D, (21a*S,*Z)-24,25-difluoro-16-hydroxy-6,10,13,21a-tetrahydro-7,8-(epiprop[1]en[1]yl[3]ylidene)-14,21-methanobenzo[6,7]thiepino[4,5-c]pyrido[1,2-f][1]oxa[5,6,9]triazacyclotridecine-15,17-dione]	8.92	> 0.05
C[C@@H]1/C=C/COc2c(F)cccc2[C@@H](c2ccccc2)N2CN1C(=O)c1c(O)c(=O)ccn12 (single isomer, unassigned) [Compound 141AA, (9*R,18*R,E)-4-fluoro-12-hydroxy-9-methyl-18-phenyl-6,9-dihydro-18H-10,17-methanobenzo[b]pyrido[1,2-f][1]oxa[5,6,9]triazacyclotridecine-11,13-dione]	8.82	> 0.05
C[C@H]1/C=C/COc2c(F)cccc2[C@@H](c2ccccc2)N2CN1C(=O)c1c(O)c(=O)ccn12 (single isomer, unassigned) [Compound 141AB, (9*S,18*R,E)-4-fluoro-12-hydroxy-9-methyl-18-phenyl-6,9-dihydro-18H-10,17-methanobenzo[b]pyrido[1,2-f][1]oxa[5,6,9]triazacyclotridecine-11,13-dione]	8.70	> 0.05
C[C@@H]1/C=C/COc2c(F)cccc2[C@H](c2ccccc2)N2CN1C(=O)c1c(O)c(=O)ccn12 (single isomer, unassigned) [Compound 141BA, (9*R,18*S,E)-4-fluoro-12-hydroxy-9-methyl-18-phenyl-6,9-dihydro-18H-10,17-methanobenzo[b]pyrido[1,2-f][1]oxa[5,6,9]triazacyclotridecine-11,13-dione]	6.51	> 20
C[C@H]1/C=C/COc2c(F)cccc2[C@H](c2ccccc2)N2CN1C(=O)c1c(O)c(=O)ccn12 (single isomer, unassigned) [Compound 141BB, (9*S,18*S,E)-4-fluoro-12-hydroxy-9-methyl-18-phenyl-6,9-dihydro-18H-10,17-methanobenzo[b]pyrido[1,2-f][1]oxa[5,6,9]triazacyclotridecine-11,13-dione]	6.20	> 20
O=C1c2c(O)c(=O)ccn2N2CN1CC[C@@H]1C[C@@H]1COc1cccc3c1[C@@H]2c1ccccc1SC3 (single isomer, unassigned) [Compound 144AA, (1*R,13*S,15*S)-7-hydroxy-17-oxa-24-thia-2,3,10-triazaheptacyclo[16.12.1.12,10.03,8.013,15.022,31.025,30]dotriaconta-4,18,20,22(31),25(30),26,28-heptaene-6,9-dione]	< 7.00	> 0.2
O=C1c2c(O)c(=O)ccn2N2CN1CC[C@H]1C[C@H]1COc1cccc3c1[C@@H]2c1ccccc1SC3 (single isomer, unassigned) [Compound 144AB, (1*R,13*R,15*R)-7-hydroxy-17-oxa-24-thia-2,3,10-triazaheptacyclo[16.12.1.12,10.03,8.013,15.022,31.025,30]dotriaconta-4,18,20,22(31),25(30),26,28-heptaene-6,9-dione]	< 7.00	> 0.2
O=C1c2c(O)c(=O)ccn2N2CN1CC[C@@H]1C[C@@H]1COc1cccc3c1[C@H]2c1ccccc1SC3 (single isomer, unassigned) [Compound 144BA, (1*S,13*S,15*S)-7-hydroxy-17-oxa-24-thia-2,3,10-triazaheptacyclo[16.12.1.12,10.03,8.013,15.022,31.025,30]dotriaconta-4,18,20,22(31),25(30),26,28-heptaene-6,9-dione]	7.14	> 0.2
O=C1c2c(O)c(=O)ccn2N2CN1CC[C@H]1C[C@H]1COc1cccc3c1C2c1ccccc1SC3 (single isomer, unassigned) [Compound 144BB, (1*S,13*R,15*R)-7-hydroxy-17-oxa-24-thia-2,3,10-triazaheptacyclo[16.12.1.12,10.03,8.013,15.022,31.025,30]dotriaconta-4,18,20,22(31),25(30),26,28-heptaene-6,9-dione]	7.29	> 4
